Here are results for 2 compounds from US7534809B2, “Phospho-indoles as HIV inhibitors” (priority 2004, dated 2009).

A short description of data set [1]: pH dependent aqueous solubility, shake-flask method. Type of data set: physicochemical. To be noted: aqueous solution, thermodynamic from solid, saturated concentration 1 mM. As to the method: The aqueous solubility of each compound was determined by the conventional shake-flask method at a saturated concentration of 1 mM. The flask (vial) was shaken for 3 hrs at ambient temperature, and then centrifuged. The supernatant was analyzed by HPLC with UV detection for solubility determination. In general, a higher aqueous solubility is more desirable for drug candidates.

Data set [2] can be described thus: Human plasma protein binding, equilibrium dialysis. Type of data set: in vitro ADME. As to conditions: pooled human plasma, 37° C., about 6 hours, 1 μM drug, read-out: Protein binding (human plasma) % Free. As to the method: The human plasma protein binding was determined using the Equilibrium Dialysis method. Dialysis was conducted with pooled human plasma at 37° C. for approximately 6 hours at a drug concentration of 1 μM. At the end of the dialysis, buffer samples from the buffer-side of the dialysis cell were collected and analyzed by LC/MS/MS for free drug concentration. For NNRTIs, a lower protein binding is more desirable.
(In general: Equilibrium dialysis compares concentrations on both sides of a semipermeable membrane.)

The target of a further data set is T1, CYP3A4 (Homo sapiens, UniProt P08684).
T1 construct: purchased BD Biosciences
The data set is described as follows: CYP450 inhibition, CYP3A4/BFC screening kit. Type of data set: in vitro ADME. The source says:
(§1) In vitro CYP450 inhibition screening allows for the prediction of potential drug-drug interactions. […] Potency and rank order of the inhibition can be assessed by determination of the IC50 values for a particular isozyme.
(§2) CYP3A4 inhibition was screened using the CYP3A4/BFC high throughput inhibitor screening kit (BD Biosciences), CYP2D6 inhibition was screened using the CYP2D6/AMMC high throughput inhibitor screening kit (BD Biosciences), and CYP2C9 inhibition was screened using the P450-Glo™ Assay kit (Promega).

Another data set concerns the target T2, CYP2D6 (Homo sapiens, UniProt P10635).
T2 construct: purchased BD Biosciences
The data set is described as follows: CYP450 inhibition, CYP2D6/AMMC screening kit. In kind it is in vitro ADME.
Text: as §1, §2

The target in a further data set is T3, CYP2C9 (Homo sapiens, UniProt P11712).
T3 construct: purchased Promega
The data set is described as follows: CYP450 inhibition, CYP2C9 P450-Glo assay kit. Type of data set: in vitro ADME.
Text: as §1, §2

Data set [3] in a line: Metabolic stability in human liver microsomes. Type of data set: in vitro ADME. To be noted: 10 μM, 1 mg/mL microsomes, 37° C., 2 hrs. An excerpt: (§3) The metabolic stability assay is to evaluate the stability of test compound in biological matrices. Data are useful in terms of understanding and predicting the elimination mechanisms of the test compound. CYP450-dependent metabolism of drugs can also vary widely from one species to another. Evaluating in vitro metabolism of a drug by liver microsomes from multiple species allows the comparison of metabolism in animal species to that of humans. This can help identify the most relevant animal model for PK and toxicology studies. The metabolic stability of a test compound was evaluated in vitro in liver microsomes of the rat, dog, monkey, and human. 10 μM of the test compound was pre-incubated for 5 min at 37° C. with 1 mg/mL liver microsomes in 0.1M Tris buffer, pH 7.4 containing 5 mM MgCl2 and 0.1 mM EDTA. Following pre-incubation, NADPH (final concentration of 3 mM) was added to start the reaction and samples incubated for 0 and 1 or 2 hours. After terminating the reaction, the supernatant was analyzed by HPLC-UV or LC/MS/MS for the disappearance of the parent and formation of metabolite(s). The %parent remaining was the peak area ratio of the 1 or 2 hr sample to the time 0 sample. In general, less metabolism (higher % parent values) is more desirable.
(In general: Liver microsomes are a subcellular fraction often used to study metabolism.)

The nature of data set [4]: Metabolic stability in rat liver microsomes. Type of data set: in vitro ADME. As to conditions: 10 μM, 1 mg/mL microsomes, 37° C., 2 hrs.
Text: as §3

A short description of data set [5]: Metabolic stability in dog liver microsomes. In kind it is in vitro ADME. To be noted: 10 μM, 1 mg/mL microsomes, 37° C., 2 hrs.
Text: as §3

Data set [6] can be described thus: Metabolic stability in monkey liver microsomes. Type of data set: in vitro ADME. To be noted: 10 μM, 1 mg/mL microsomes, 37° C., 2 hrs.
Text: as §3

The nature of data set [7]: In vitro metabolism in liver microsomes, metabolic pathway. Type of data set: in vitro ADME, rat, dog, monkey, and human. As to conditions: LC/MS/MS metabolite profiling. As to the method: Phase I biotransformation of a test compound is evaluated in this assay. Samples from the metabolic stability experiment were analyzed by LC/MS/MS for metabolite profiling and identification. Structures of metabolites were elucidated based on multiple MS/MS experiments such as full scan, neutral loss scan, and product ion scan. Metabolic pathways were then postulated based on the structures of major metabolites. For compounds from the phosphinate series, N-oxidation of the terminal pyridine ring is the predominant pathway, followed by the oxidation of the dimethyl-phenyl group, where the methyl group(s) is hydroxylated, further oxidized to an aldehyde, and finally to a carboxylic acid. The elucidation of metabolic pathways is important in terms of understanding the elimination mechanism of a test compound and assisting the design of new molecules with improved DM-PK profiles.

Data set [8] can be described thus: PK and oral bioavailability in the rat. Type of data set: in vivo, Sprague-Dawley rats. As to conditions: for half-life: PEG400, read-out: T½ (converted). As to the method:
(§4) The pharmacokinetics of a test compound was evaluated in Sprague-Dawley rats and Beagle dogs. A typical PK study involved dosing of 2 to 3 animals via a single IV bolus injection at 1 mg/kg and another 3 animals via a single oral gavage at 5 mg/kg. Blood samples were collected at various time points over a 24-hr period. Plasma was separated and analyzed for test compound and its metabolite(s) by LC/MS/MS. PK parameters were calculated from the plasma concentration—time profile using a noncompartmental method. Oral bioavailability (F) was calculated based on dose-normalized AUC values from oral and IV administration. Higher oral bioavailability values are better.

Data set [9] in a line: PK and oral bioavailability in the dog. Type of data set: in vivo, Beagle dogs. As for the experimental part:
as §4

Data set [10] relates to mutant forms such as K103N/M184V/NAMS and K103N/Y181C/M184V/NAMS. The experiment in a line: MDRC4 and CNDO cell-based assays versus other mutant forms. As to conditions: Human immunodeficiency virus 1, read-out: EC50 values. On the set-up: species or system HIV.
Where [11] appears, read: Sprague-Dawley, plasma, IV, 1.0 mg/kg, PEG400.
Where [12] appears, read: Sprague-Dawley, plasma, PO, 5.0 mg/kg, PEG400.
The mark [13] stands for this setting: Beagle, plasma, IV, 1.0 mg/kg, PEG400.
Where [14] appears, read: Beagle, plasma, PO, 5.0 mg/kg, 0.5% MC.

Structures are written as SMILES. ≈ marks a conversion by molar mass, not a printed value. Like-named read-outs stand apart in the source and are kept apart here.

T3 sequence (P11712 whole entry): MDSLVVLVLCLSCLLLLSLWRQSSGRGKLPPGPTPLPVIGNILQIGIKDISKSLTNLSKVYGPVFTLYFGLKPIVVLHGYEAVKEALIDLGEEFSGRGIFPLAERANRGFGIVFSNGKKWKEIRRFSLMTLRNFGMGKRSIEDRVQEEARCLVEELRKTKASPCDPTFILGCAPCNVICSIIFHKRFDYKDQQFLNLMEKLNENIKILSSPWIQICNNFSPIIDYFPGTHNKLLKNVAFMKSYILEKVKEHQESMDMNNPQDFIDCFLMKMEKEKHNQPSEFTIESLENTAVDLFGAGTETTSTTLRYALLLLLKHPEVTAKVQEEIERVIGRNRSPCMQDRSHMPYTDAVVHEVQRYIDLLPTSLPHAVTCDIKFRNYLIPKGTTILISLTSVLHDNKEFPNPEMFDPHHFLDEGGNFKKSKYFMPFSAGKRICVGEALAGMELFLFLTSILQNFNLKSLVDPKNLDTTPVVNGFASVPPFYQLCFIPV
T2 sequence (P10635 whole entry): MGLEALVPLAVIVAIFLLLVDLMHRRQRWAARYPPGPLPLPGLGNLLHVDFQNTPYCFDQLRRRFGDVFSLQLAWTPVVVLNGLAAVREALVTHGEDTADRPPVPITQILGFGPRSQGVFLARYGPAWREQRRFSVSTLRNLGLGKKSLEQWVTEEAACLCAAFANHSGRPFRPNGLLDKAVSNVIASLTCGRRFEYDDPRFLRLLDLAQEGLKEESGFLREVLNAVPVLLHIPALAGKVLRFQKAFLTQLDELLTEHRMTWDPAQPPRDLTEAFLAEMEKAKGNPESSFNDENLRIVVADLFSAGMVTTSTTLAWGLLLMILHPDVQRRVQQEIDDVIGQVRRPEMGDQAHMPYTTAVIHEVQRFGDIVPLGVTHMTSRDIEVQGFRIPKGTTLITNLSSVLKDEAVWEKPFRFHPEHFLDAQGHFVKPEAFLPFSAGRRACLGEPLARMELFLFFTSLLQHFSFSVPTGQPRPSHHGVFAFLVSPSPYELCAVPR
T1 sequence (P08684 whole entry): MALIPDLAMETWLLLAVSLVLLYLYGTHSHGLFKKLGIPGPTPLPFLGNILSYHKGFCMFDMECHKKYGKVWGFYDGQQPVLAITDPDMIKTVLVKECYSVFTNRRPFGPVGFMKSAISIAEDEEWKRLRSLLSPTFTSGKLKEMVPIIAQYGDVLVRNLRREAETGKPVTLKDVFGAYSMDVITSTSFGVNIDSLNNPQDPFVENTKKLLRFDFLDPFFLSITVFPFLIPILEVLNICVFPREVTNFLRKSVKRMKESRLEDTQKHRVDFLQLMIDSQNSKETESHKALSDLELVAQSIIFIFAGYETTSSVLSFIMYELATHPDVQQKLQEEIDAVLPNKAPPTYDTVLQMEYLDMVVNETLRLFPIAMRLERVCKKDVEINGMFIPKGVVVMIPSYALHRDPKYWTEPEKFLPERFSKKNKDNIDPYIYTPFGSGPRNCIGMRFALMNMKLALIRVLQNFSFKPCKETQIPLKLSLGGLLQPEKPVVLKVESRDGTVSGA

In the case of `COP(=O)(c1cc(C)cc(C)c1)c1c(C(=O)NCc2cc[n+]([O-])cc2)[nH]c2ccc(Cl)cc12` (stereo not drawn) [Compound D], the solubility at 3 h in [1] (pH 1, simulated gastric fluid, pH1, ambient temperature, read-out: Aqueous solubility pH1) is 52 µM (≈ 25.2 µg/mL); in data set [1] (pH 3, aqueous buffer, pH3, ambient temperature, read-out: Aqueous solubility pH3) it was 74.2 µM (≈ 35.9 µg/mL); in [1] (pH 7, aqueous buffer, pH7, ambient temperature, read-out: Aqueous solubility pH7), 50.6 µM (≈ 24.5 µg/mL); in [1] (pH 9, aqueous buffer, pH9, ambient temperature, read-out: Aqueous solubility pH9) it was 66.8 µM (≈ 32.3 µg/mL). In addition, the fraction unbound at 6 h, 1 μM in data set [2] was determined as 0.016. Further, the IC50 is 1070 nM on CYP3A4, above 10000 nM on CYP2D6 and above 10000 nM against CYP2C9. Also, the “Metabolic stability in liver microsomes % Parent after 2 hrs, Human” value in data set [3] worked out at 76%. In [4], the “Metabolic stability in liver microsomes % Parent after 2 hrs, Rat” value is listed as 1%. Further, the “Metabolic stability in liver microsomes % Parent after 2 hrs, Dog” value in data set [5] is 82%. In addition, in [6], the “Metabolic stability in liver microsomes % Parent after 2 hrs, Monkey” value is given as 24%. For the same compound, the “Metabolic pathway (in vitro)” value in [7] was “Hydroxylation to CH3OH— to CHO— to COOH—”. Besides, the AUCinf/Dose in data set [8] (IV, 1.0 mg/kg, PEG400) stood at 188.3; in data set [8] (PO, 5.0 mg/kg, PEG400), 30.2; in data set [9] (IV, 1.0 mg/kg, PEG400) it was 1220.5; in [9] (PO, 5.0 mg/kg, 0.5% MC), 149.3. For the same compound, the CI in data set [8] (IV, 1.0 mg/kg, PEG400) was determined as 90.297 mL/min/kg; in data set [9] (IV, 1.0 mg/kg, PEG400), 13.7 mL/min/kg. In addition, the F in data set [8] (PO, 5.0 mg/kg, PEG400, oral bioavailability) came to 16.0%; in [9] (PO, 5.0 mg/kg, 0.5% MC, oral bioavailability), 12.4%. In addition, the AUC(0-inf) is 188 ng·h/mL in [8] (setting [11]), 151 ng·h/mL in data set [8] (setting [12]), 1220 ng·h/mL in data set [9] (setting [13]) and 747 ng·h/mL in [9] (setting [14]). Further, the area under the curve AUC(0-t) in data set [8] (setting [11]) came to 174 ng·h/mL; in data set [8] (setting [12]) it was 132 ng·h/mL; in data set [9] (setting [13]) it was 1010 ng·h/mL; in [9] (setting [14]), 696 ng·h/mL. The Cmax in data set [8] (setting [11]) is 166 ng/mL; in data set [8] (setting [12]), 45 ng/mL; in [9] (setting [13]), 430 ng/mL; in [9] (setting [14]) it was 116 ng/mL. For the same compound, the half-life in [8] (Sprague-Dawley, plasma, IV, 1.0 mg/kg) was 0.9 h; in [8] (Sprague-Dawley, plasma, PO, 5.0 mg/kg), 2.2 h; in data set [9] (Beagle, plasma, IV, 1.0 mg/kg, PEG400, read-out: T½ (converted)), 3.2 h; in data set [9] (Beagle, plasma, PO, 5.0 mg/kg, 0.5% MC, read-out: T½ (converted)) it was 2.6 h. Further, the Vd turned out to be 6.37 L/kg in data set [8] (Sprague-Dawley, plasma, IV, 1.0 mg/kg, PEG400, read-out: Vss) and 3.72 L/kg in data set [9] (Beagle, plasma, IV, 1.0 mg/kg, PEG400, read-out: Vss). Also, the Tmax worked out at 0.5 h in data set [8] (setting [12]) and 2.7 h in [9] (setting [14]).
Consider `CCOC(=O)c1c(P(=O)(OCC)c2ccccc2)c2cc(Cl)ccc2n1S(=O)(=O)c1ccccc1` (stereo not drawn) [Example 3, Ethyl 5-chloro-3-[ethoxy(phenyl)phosphoryl]-1-(phenylsulfonyl)-1H-indole-2-carboxylate], for which, in [10], the EC50 lay within 1.3 to 447 nM.

In general, solubility refers to how much of the substance goes into solution per volume. In general, IC50 refers to the concentration that inhibits the measured activity by half. As usually defined, the AUC(0-inf) is total exposure, with the tail of the curve extrapolated. As usually defined, the AUC(0-t) is exposure summed from dosing to a finite time, without extrapolation to infinity. For orientation: Cmax means the peak of the concentration-time curve. Usually Tmax stands for the time from dosing to the highest level. The EC50 is the concentration needed to bring the measured effect to its halfway point.
